The test system of assay [1] is CYSLTR2^L129Q. The assay is described as follows: IP1 accumulation assay in transiently transfected HEK293T cells. The class given is cell-based, human. The conditions noted are these: 24-hour treatment. The method, then: Cells were treated with YM at increasing doses for 24 hours. Error bars, s.e.m. from three biological replicates, each with three technical replicates.
Exogenous Gene Expression. HEK293T cells were transiently transfected to express vectors containing synthetic CYSLTR2 (Moore A R, et al., Nat Genet. 48(6):675 (2016)) and GNAQ. Genewiz was used to codon optimize these sequences for expression in mammalian cells. The human GNAQ α-subunit plasmids encoding for GNAQ mutants Q209L, R183Q and G48V were generated by Quick Change (Agilent Technologies, Santa Clara, Calif.) site-directed mutagenesis. […]
IP1 Accumulation Assay. IP1 concentrations in GNAQ-transfected HEK293T cells, GNAQ-expressing melan-a cells and uveal melanoma cells was measured using a competitive homogenous time resolved fluorescence (HTRF) assay (CisBio, Bedford, Mass.). […] Following incubation, cells were lysed by adding 3 μL/well of d2-labeled IP1 analogue as the fluorescence acceptor and the Terbium cryptate-labeled anti-IP1 mAb as the fluorescence donor, diluted in the kit-supplied lysis buffer. The plates were incubated overnight at RT and time-resolved fluorescence signals were read using the BioTek Synergy NEO plate reader (BioTek Instruments, Winooski, Vt.) at 620 nm and 655 nm. […] Dose-response curves and bar graphs were analyzed using GraphPad Prism 7.0 software. […]

In assay [2] the target is T1, GNAQ^R183Q (Homo sapiens, UniProt P50148, R183Q).
T1 construct: host or cells: melan-a (immortalized mouse melanocytes), retroviral transduction with MSCV-Puro
T1 sequence (P50148 1-359 R183Q): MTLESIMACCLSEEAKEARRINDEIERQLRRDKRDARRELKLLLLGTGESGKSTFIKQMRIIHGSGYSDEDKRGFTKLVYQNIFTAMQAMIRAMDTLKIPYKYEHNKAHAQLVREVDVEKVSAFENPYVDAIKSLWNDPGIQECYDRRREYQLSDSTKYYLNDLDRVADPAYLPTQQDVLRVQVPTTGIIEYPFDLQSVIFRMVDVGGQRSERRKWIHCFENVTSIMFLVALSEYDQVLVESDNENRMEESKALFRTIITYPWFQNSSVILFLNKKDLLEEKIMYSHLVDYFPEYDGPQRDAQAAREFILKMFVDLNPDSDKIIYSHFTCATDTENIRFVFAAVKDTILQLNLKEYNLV
The assay is described as follows: IP1 accumulation assay in mutation dependent melan-a cells. The class given is cell-based, mouse. As for the experimental part: Cells were treated with increasing concentrations of YM-254890 (YM) for 3 hours (top) and 24 hours (bottom). Error bars, s.e.m. from three biological replicates, each with three technical replicates.
(§1) Cell Culture and in vitro analysis. Mutation dependent melan-a cells were generated by transducing cells with cDNAs in MSCV-PURO (retrovirus) and then selecting cells with puromycin (1 μg/ml) for two days. TPA (Sigma-Aldrich, St. Louis, Mo.) was then withdrawn from cultures. Cells with activating mutations (CYSLTR2^L129Q, GNAQ^G48V/R183Q/Q209L, KRAS^G12V, and BRAF^V600E) continued to proliferate over several passages (>2 weeks) and were then validated with qRT-PCR and immunoblots. Vector and WT controls were unable to maintain proliferation after a couple passages upon TPA withdrawal. All cells were cultured in media containing 10% FBS, L-glutamine ([…]), penicillin (100 U/ml), streptomycin (100 μg/ml). Melan-a cells provided by D. Bennett, St. George's Hospital, University of London (Johnson C P, et al., PLoS One. 12(6):1-17 (2017)), were cultured in RPMI supplemented with 200 nM TPA unless otherwise noted. HEK293T (from ATCC, Manassas, Va.) cells were cultured in DMEM-Q and UVM cells were cultured in RPMI. All cells tested negative for mycoplasma. Cell growth assays and YM dose response curves were assayed using CellTiter-glo 2.0 (Promega, Madison, Wis.) at given time points or after five days of incubation with YM and readout on a Glomax Luminometer (Promega, Madison, Wis.). IC50 values were calculated using Prism 7.0 software. Growth assays were compared to day 1 readings and dose response curves were compared to vehicle. Data shown is representative of at least three independent experiments with at least three technical replicates. Dose-response curves and growth assays were analyzed using GraphPad Prism 7.0 software.
IP1 Accumulation Assay. IP1 concentrations in GNAQ-transfected HEK293T cells, GNAQ-expressing melan-a cells and uveal melanoma cells was measured using a competitive homogenous time resolved fluorescence (HTRF) assay (CisBio, Bedford, Mass.). Briefly, 9,000 transiently transfected-HEK293T cells, 5,000 melan-a cells and 5,000 uveal melanoma cells were seeded in low-volume 384-well plates in 7 μL media for 24 hours prior YM-254890 treatment. Cells were then treated with various concentrations of YM-254890 diluted in the appropriate media at 37° C. for 3 hours or 24 hours. 1 h prior lysis, cells were supplemented with 1× Stimulation Buffer provided by the manufacturer (HEPES 10 mM, CaCl2) 1 mM, MgCl2 0.5 mM, KCl 4.2 mM, NaCl 146 mM, glucose 5.5 mM, LiCl 50 mM, pH 7.4) with 0.2% BSA and 50 mM of LiCl (to prevent IP1 degradation). Following incubation, cells were lysed by adding 3 μL/well of d2-labeled IP1 analogue as the fluorescence acceptor and the Terbium cryptate-labeled anti-IP1 mAb as the fluorescence donor, diluted in the kit-supplied lysis buffer. The plates were incubated overnight at RT and time-resolved fluorescence signals were read using the BioTek Synergy NEO plate reader (BioTek Instruments, Winooski, Vt.) at 620 nm and […]. Results were calculated as a 665 nm/620 nm signal ratio, and IP1 concentrations were interpolated from a standard curve prepared using the supplied IP1 calibrator. Results are shown as IP1 (nM). Dose-response curves and bar graphs were analyzed using GraphPad Prism 7.0 software.

Assay [3] relates to BRAF^V600E-expressing melan-a cells. The assay is described as follows: TPA-independent cell growth, CellTiter-glo 2.0. The format is cell-based, mouse. The conditions noted are these: 5 days, without TPA. The method, then: (§2) Data are expressed as the percentage relative light units (RLU) relative to that observed with vehicle. Error bars, s.e.m. from triplicate samples.
as §1
A general note: Cellular ATP, detected with luciferase, serves as a proxy for viable cell number.

Assay [4] has as its system GNAQ^G48V-expressing melan-a cells. The assay is described as follows: TPA-independent cell growth, CellTiter-glo 2.0. The class given is cell-based, mouse. The note with it: 5 days, without TPA. As for the experimental part:
as §2, §1

Assay [5] concerns GNAQ^R183Q-expressing melan-a cells. The assay is described as follows: TPA-independent cell growth, CellTiter-glo 2.0. The conditions noted are these: 5 days, without TPA. The format is cell-based, mouse. As for the experimental part:
as §2, §1

The test system of assay [6] is KRAS^G12V-expressing melan-a cells. The assay is described as follows: TPA-independent cell growth, CellTiter-glo 2.0. The note with it: 5 days, without TPA. The format is cell-based, mouse. As for the experimental part: as §2, §1

On to YM-254890, for which the “potency of inhibition of IP1 accumulation” value in assay [1] is given as “subnanomolar potency”. Further, in assay [2] (24-hour treatment), the “fold less sensitive than CYSLTR2^L129Q and GNAQ^G48V mutants (IP1 accumulation)” value is “approximately 10 fold”. Besides, in assay [2] (24-hour treatment), the “inhibition of IP1 accumulation” value was “completely inhibited”. Further, the “sensitivity of IP1 accumulation after 3 hours versus 24 hours” value in assay [2] (3 hours of treatment) is reported as “less sensitive”. Moreover, the “sensitivity of TPA-independent cell growth to YM” value in assay [3] is “completely resistant”; in assay [4], “sub-nanomolar sensitivity”; in assay [5], “modestly less sensitive”; in assay [6], “completely resistant”.

The values are drawn from patent publication US20210403864A1, “METHODS AND COMPOSITIONS FOR TREATING ACTIVATED G-ALPHA Q MUTANT CANCERS OR MELANOCYTIC MALIGNANCIES” (Memorial Sloan Kettering Cancer Center, priority 2018, published 2021).
